According to the supplement of paper PMC10307832:

Key:
Assay in all cases: relative viability (nuclei count vs DMSO), 5 days (fraction); higher = more cells survive
[1] = compound: O=S(=O)(c1ccccc1)N(CC(F)(F)F)c1ccc(C(O)(C(F)(F)F)C(F)(F)F)cc1 + CC1(C)CCC(c2ccc(Cl)cc2)=C(CN2CCN(c3ccc(C(=O)NS(=O)(=O)c4ccc(N[C@H](CCN5CCOCC5)CSc5ccccc5)c(S(=O)(=O)C(F)(F)F)c4)cc3)CC2)C1 [Navitoclax] (partner 0.5 µM)
Outline: (§1)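 For relative viability, nuclei counts in treated wells were divided by those in vehicle wells. Lung cancer cell lines had been pin-tool dosed in 1536-well plates the day after seeding and cultured for 5 days, then fixed and stained in one step (final 0.05% Triton X-100, 1% formaldehyde, 1 ug/ml Hoechst) and imaged at 4×. Doses were one drug alone or a fixed anchor-drug dose plus five library-drug doses (not always all listed) in √10 steps, and values are duplicate-plate medians.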

[2] = compound: O=S(=O)(c1ccccc1)N(CC(F)(F)F)c1ccc(C(O)(C(F)(F)F)C(F)(F)F)cc1 + CC(C)C[C@H](NC(=O)[C@H](Cc1ccccc1)NC(=O)c1cnccn1)B(O)O [Bortezomib] (partner 0.002 µM)
Outline: as §1

RO-3306 + Pemetrexed = compound: C1=CC2=C(C=CC(=C2)C=C3C(=O)NC(=NCC4=CC=CS4)S3)N=C1 [RO-3306] + Nc1nc2[nH]cc(CCc3ccc(C(=O)N[C@@H](CCC(=O)O)C(=O)O)cc3)c2c(=O)[nH]1 [Pemetrexed] (partner 0.2 µM)
Outline: as §1

[3] = compound: O=S(=O)(c1ccccc1)N(CC(F)(F)F)c1ccc(C(O)(C(F)(F)F)C(F)(F)F)cc1 + Nc1ncn([C@H]2C[C@H](O)[C@@H](CO)O2)c(=O)n1 [Decitabine] (partner 2 µM)
Outline: as §1

[4] = compound: O=S(=O)(c1ccccc1)N(CC(F)(F)F)c1ccc(C(O)(C(F)(F)F)C(F)(F)F)cc1 + CS(=O)(=O)N1CCN(Cc2cc3nc(-c4cccc5[nH]ncc45)nc(N4CCOCC4)c3s2)CC1 [Pictilisib] (partner 1 µM)
Outline: as §1

[5] = compound: O=S(=O)(c1ccccc1)N(CC(F)(F)F)c1ccc(C(O)(C(F)(F)F)C(F)(F)F)cc1 + C[C@@H](Oc1cc(-c2cnn(C3CCNCC3)c2)cnc1N)c1c(Cl)ccc(F)c1Cl [Crizotinib] (partner 1 µM)
Outline: as §1

Row | Cell Line | relative viability ([1]; first compound 0.8 µM) | relative viability ([1]; first compound 2.53 µM) | relative viability ([1]; first compound 8 µM) | relative viability ([2]; first compound 0.8 µM) | relative viability ([2]; first compound 2.53 µM) | relative viability ([2]; first compound 8 µM) | relative viability (RO-3306 + Pemetrexed; first compound 0.01 µM) | relative viability (RO-3306 + Pemetrexed; first compound 0.03162 µM) | relative viability (RO-3306 + Pemetrexed; first compound 0.1 µM) | relative viability (RO-3306 + Pemetrexed; first compound 0.3162 µM) | relative viability (RO-3306 + Pemetrexed; first compound 1 µM) | relative viability ([3]; first compound 0.8 µM) | relative viability ([3]; first compound 2.53 µM) | relative viability ([3]; first compound 8 µM) | relative viability ([4]; first compound 0.8 µM) | relative viability ([4]; first compound 2.53 µM) | relative viability ([4]; first compound 8 µM) | relative viability ([5]; first compound 0.8 µM) | relative viability ([5]; first compound 2.53 µM) | relative viability ([5]; first compound 8 µM)
1 | A-427 | 1.01 | 0.886 | 1.01 | 0.973 | 0.916 | 1.07 | 0.942 | 0.902 | 0.966 | 0.937 | 0.607 | 0.526 | 0.509 | 0.551 | 0.708 | 0.677 | 0.822 | 0.929 | 0.793 | 0.872
2 | NCI-H1648 |  |  |  |  |  |  | 0.887 |  | 0.602 | 0.697 | 0.873 | 0.462 | 0.546 | 0.595 |  |  |  |  |  | 
3 | EBC-1 | 0.447 | 0.402 | 0.356 | 0.405 | 0.357 | 0.415 |  |  |  |  |  |  |  |  | 0.286 | 0.266 | 0.284 | 0.234 | 0.29 | 0.293
4 | NCI-H522 |  |  |  |  |  |  | 1.16 | 0.947 | 0.868 | 1.16 | 1.03 | 0.565 | 0.608 | 0.746 |  |  |  |  |  | 
5 | NCI-H1395 | 1.01 | 1.06 | 1.31 |  |  |  | 0.678 | 0.751 | 0.728 | 0.726 | 0.549 | 0.712 | 0.741 | 0.815 | 0.569 | 0.562 | 0.635 |  |  | 
6 | Calu-6 | 0.796 | 0.823 | 0.647 | 0.885 | 0.852 | 0.769 |  |  |  |  |  |  |  |  | 0.839 | 0.851 | 0.691 | 0.7 | 0.668 | 0.649
7 | NCI-H2228 | 0.839 | 0.89 | 0.713 | 1.13 | 0.872 | 0.906 | 0.356 | 0.36 | 0.347 | 0.355 | 0.265 |  |  |  | 0.414 | 0.366 | 0.26 | 0.389 | 0.354 | 0.462
8 | NCI-H661 |  |  |  | 0.885 | 0.883 | 0.642 | 0.966 | 0.954 | 0.929 | 0.926 | 0.963 | 0.612 | 0.569 | 0.498 | 0.389 | 0.398 | 0.427 | 0.99 | 0.965 | 0.933
9 | NCI-H1299 | 1.06 | 1 | 0.983 | 1.02 | 0.981 | 0.946 |  |  |  |  |  |  |  |  | 0.875 | 0.78 | 0.663 | 0.958 | 0.942 | 0.906
10 | NCI-H358 |  |  |  |  |  |  | 0.192 | 0.154 | 0.177 | 0.189 | 0.174 |  | 0.19 | 0.129 | 0.274 | 0.28 | 0.286 | 0.606 | 0.515 | 0.512
11 | SW 900 |  |  |  |  |  |  | 0.487 | 0.383 | 0.464 | 0.488 | 0.411 | 0.417 | 0.427 | 0.429 |  |  |  |  |  | 
12 | ABC-1 |  |  |  | 0.27 | 0.297 | 0.293 |  |  |  |  |  |  | 1.02 | 1.05 | 0.7 | 0.602 | 0.755 | 1.19 | 1.07 | 1.01
13 | LK-2 | 0.912 | 0.778 | 0.941 |  |  |  | 0.266 | 0.293 | 0.264 | 0.275 | 0.288 | 0.333 | 0.347 | 0.325 | 0.628 | 0.752 | 0.493 | 0.2 | 0.229 | 0.242
14 | A549 | 1.34 | 1.12 | 0.97 |  |  |  |  |  |  |  |  | 0.411 | 0.292 | 0.201 | 0.609 | 0.473 | 0.567 | 0.884 | 0.74 | 0.703
15 | NCI-H1793 | 0.471 | 0.261 | 0.301 |  |  |  | 0.971 |  | 0.771 | 0.901 | 0.667 | 0.262 | 0.384 | 0.4 | 0.366 | 0.344 | 0.277 |  |  | 
16 | CAL-12T | 1.18 | 1.35 | 0.832 |  | 0.964 | 0.958 | 1.38 | 1.35 | 1.17 | 1.15 | 1.26 |  |  |  |  | 0.342 | 0.542 | 0.708 | 0.417 | 0.477
17 | NCI-H1703 | 0.926 | 0.634 | 0.7 | 0.389 | 0.185 | 0.381 |  |  |  |  |  |  |  |  | 0.253 | 0.211 | 0.218 | 0.676 | 0.701 | 0.588
18 | LCLC-103H |  |  |  | 1.18 | 1.04 | 1.12 | 0.474 | 0.461 | 0.448 | 0.457 | 0.464 | 0.739 | 0.743 | 0.734 | 0.536 | 0.592 | 0.651 | 1.14 | 1.13 | 1.15
19 | NCI-H1563 |  |  |  | 0.915 | 0.927 | 0.685 | 0.847 | 0.788 | 0.818 | 0.852 | 0.692 |  |  |  | 0.734 | 0.655 | 0.581 | 0.873 | 0.742 | 0.733
20 | IA-LM | 0.765 | 0.696 | 0.899 | 0.727 | 0.522 | 0.77 |  |  |  |  |  |  |  |  | 0.355 | 0.305 | 0.524 | 0.863 | 0.652 | 0.906
21 | NCI-H650 |  |  |  | 0.832 | 0.776 | 0.823 | 0.958 | 0.883 | 0.868 | 0.986 | 0.983 | 0.339 | 0.312 | 0.288 | 0.913 | 0.842 | 0.885 | 0.737 | 0.559 | 0.782
22 | NCI-H2342 |  |  |  |  |  |  | 0.71 | 0.778 | 0.816 | 0.817 | 0.759 | 0.82 | 0.837 | 0.738 |  |  |  |  |  | 
